Experimental data as given in PubChem BioAssay AID330 (DTP/NCI, 2004).
Where “and” joins values, the source holds several entries; their conditions need not be identical. Equal values may be shown once. Inconclusive results and toxic doses are left out.

Tested on: P388 leukemia ip, CD2F1 mice, survival T/C
Test: NCI In Vivo Anticancer Drug Screen. Data for tumor model P388 Leukemia (intraperitoneal) in CD2F1 (CDF1) mice
Settings: endpoint: median survival time, higher = longer survival
Summary of the method: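 Mice carrying the transplanted tumor received test compound or vehicle. Survival was recorded in each group, and the value is the treated-group measurement divided by that of the vehicle-treated control group.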

[1] = dose: 25.0 mg/kg/injection, schedule: Q01DX009 (ip), vehicle: saline
[2] = dose: 50.0 mg/kg/injection, schedule: Q01DX009 (ip), vehicle: saline
[3] = dose: 100.0 mg/kg/injection, schedule: Q01DX009 (ip), vehicle: saline
[4] = dose: 50.0 mg/kg/injection, schedule: Q01DX005 (ip), vehicle: saline with Tween-80
[5] = dose: 100.0 mg/kg/injection, schedule: Q01DX005 (ip), vehicle: saline with Tween-80
[6] = dose: 200.0 mg/kg/injection, schedule: Q01DX005 (ip), vehicle: saline with Tween-80
[7] = dose: 50.0 mg/kg/injection, schedule: Q01DX009 (ip), vehicle: saline with Tween-80
[8] = dose: 100.0 mg/kg/injection, schedule: Q01DX009 (ip), vehicle: saline with Tween-80
[9] = dose: 100.0 mg/kg/injection, schedule: Q04DX003 (ip), vehicle: saline with Tween-80
[10] = dose: 200.0 mg/kg/injection, schedule: Q04DX003 (ip), vehicle: saline with Tween-80
[11] = dose: 60.0 mg/kg/injection, schedule: Q01DX005 (ip), vehicle: saline with Tween-80
[12] = dose: 120.0 mg/kg/injection, schedule: Q01DX005 (ip), vehicle: saline with Tween-80
[13] = dose: 240.0 mg/kg/injection, schedule: Q01DX005 (ip), vehicle: saline with Tween-80
[14] = dose: 50.0 mg/kg/injection, schedule: Q01DX009 (ip), vehicle: Klucel (hydroxypropylcellulose) (HPC)
[15] = dose: 100.0 mg/kg/injection, schedule: Q01DX009 (ip), vehicle: Klucel (hydroxypropylcellulose) (HPC)
[16] = dose: 200.0 mg/kg/injection, schedule: Q01DX009 (ip), vehicle: Klucel (hydroxypropylcellulose) (HPC)
[17] = dose: 25.0 mg/kg/injection, schedule: Q01DX009 (ip), vehicle: Klucel (hydroxypropylcellulose) (HPC)
[18] = dose: 100.0 mg/kg/injection, schedule: Q04DX002 (ip), vehicle: saline with Tween-80

In the case of COc1cccc2c1C(=O)c1c(O)c3c(c(O)c1C2=O)C[C@](O)(C(=O)CO)CC3OC1CC(N)C(OC2CCCCO2)C(C)O1 (some centres not stated), the T/C (dose: 0.78 mg/kg/injection, schedule: Q04DX003 (ip), vehicle: water) is reported as 122 % of control, the T/C (dose: 3.12 mg/kg/injection, schedule: Q04DX003 (ip), vehicle: water) is reported as 153 % of control and 240 % of control and the T/C (dose: 3.13 mg/kg/injection, schedule: Q04DX003 (ip), vehicle: water) is reported as 161 % of control. The T/C (dose: 3.75 mg/kg/injection, schedule: Q01DX005 (ip), vehicle: water) was 154 % of control, the T/C (dose: 6.25 mg/kg/injection, schedule: Q04DX003 (ip), vehicle: water) was 192 % of control and 200 % of control and 280 % of control and the T/C (dose: 7.5 mg/kg/injection, schedule: Q01DX005 (ip), vehicle: water) was 151 % of control. For the same molecule, the T/C (dose: 12.5 mg/kg/injection, schedule: Q04DX003 (ip), vehicle: water) was 154 % of control and 416 % of control, the T/C (dose: 15.0 mg/kg/injection, schedule: Q01DX005 (ip), vehicle: water) was 196 % of control and the T/C (dose: 25.0 mg/kg/injection, schedule: Q04DX003 (ip), vehicle: water) was 91 % of control. For the same molecule, the T/C (dose: 50.0 mg/kg/injection, schedule: Q04DX003 (ip), vehicle: water) was 87 % of control.
With CC(C)N(CCCOC(=O)c1ccc(N)cc1)C(C)C the T/C [1] was 100 % of control, the T/C (dose: 25.0 mg/kg/injection, schedule: Q04DX003 (ip), vehicle: saline) was 100 % of control and the T/C [2] was 100 % of control. The T/C (dose: 50.0 mg/kg/injection, schedule: Q04DX003 (ip), vehicle: saline) was 91 % of control, the T/C [3] was 100 % of control and the T/C (dose: 100.0 mg/kg/injection, schedule: Q04DX003 (ip), vehicle: saline) was 100 % of control.
For CCOC(Cn1cc([N+](=O)[O-])c(=O)[nH]c1=O)OCC, the T/C (dose: 25.0 mg/kg/injection, schedule: Q01DX005 (ip), vehicle: Klucel (hydroxypropylcellulose) (HPC)) was 90 % of control and the T/C (dose: 50.0 mg/kg/injection, schedule: Q01DX005 (ip), vehicle: Klucel (hydroxypropylcellulose) (HPC)) was 95 % of control.
CC(=O)C(=Cc1ccc(C)cc1)C(C)=O was tested, and the T/C [4] was 99 % of control, the T/C [5] was 103 % of control and the T/C [6] was 110 % of control.
O=C1Nc2ccc3cn[nH]c3c2C1=O was tested, and the T/C [4] was 98 % of control, the T/C [5] was 101 % of control and the T/C [6] was 105 % of control.
For O=[N+]([O-])c1cccc(SNc2cccc(Cl)c2)c1, the T/C (dose: 25.0 mg/kg/injection, schedule: Q01DX009 (ip), vehicle: saline with Tween-80) was 100 % of control, the T/C (dose: 25.0 mg/kg/injection, schedule: Q04DX003 (ip), vehicle: saline with Tween-80) was 90 % of control and the T/C [7] was 95 % of control. For the same molecule, the T/C (dose: 50.0 mg/kg/injection, schedule: Q04DX003 (ip), vehicle: saline with Tween-80) was 100 % of control, the T/C [8] was 104 % of control and the T/C [9] was 86 % of control. For the same molecule, the T/C [10] was 100 % of control.
For S=C(N/N=C\c1nc2ccccc2c2ccccc12)Nc1ccc(Br)cc1, the T/C (dose: 100.0 mg/kg/injection, schedule: Q04DX002 (ip), vehicle: Klucel (hydroxypropylcellulose) (HPC)) was 93 % of control, the T/C (dose: 200.0 mg/kg/injection, schedule: Q04DX002 (ip), vehicle: Klucel (hydroxypropylcellulose) (HPC)) was 93 % of control and the T/C (dose: 400.0 mg/kg/injection, schedule: Q04DX002 (ip), vehicle: Klucel (hydroxypropylcellulose) (HPC)) was 96 % of control.
With N=C=S.O=NO.O=N[O-].[Co+3].[NH-]CC[NH-].[NH-]CC[NH-] the T/C (dose: 13.0 mg/kg/injection, schedule: Q01DX009 (ip), vehicle: saline) was 105 % of control, the T/C [1] was 113 % of control and the T/C [2] was 103 % of control.
With NC(N)=N/N=C/COc1cccnc1 the T/C [11] was 97 % of control, the T/C [12] was 100 % of control and the T/C [13] was 97 % of control.
O=C1C2=C(CCC2)C2CCCC12 (configuration not stated) was tested, and the T/C [7] was 102 % of control, the T/C [8] was 109 % of control and the T/C (dose: 200.0 mg/kg/injection, schedule: Q01DX009 (ip), vehicle: saline with Tween-80) was 90 % of control.
Cc1ccc(C(CC(=O)O)C(N)C(=O)O)cc1 (configuration not stated) was tested, and the T/C (dose: 12.5 mg/kg/injection, schedule: Q01DX009 (ip), vehicle: saline) was 98 % of control, the T/C [1] was 88 % of control and the T/C [2] was 95 % of control and 96 % of control. For the same molecule, the T/C [3] was 100 % of control and the T/C (dose: 200.0 mg/kg/injection, schedule: Q01DX009 (ip), vehicle: saline) was 95 % of control.
Fc1c(F)c(-c2c(F)c(F)c(OCC3CO3)c(F)c2F)c(F)c(F)c1OCC1CO1 (configuration not stated) was tested, and the T/C [14] was 98 % of control, the T/C [15] was 103 % of control and the T/C [16] was 102 % of control.
CN(C)c1ccc(C(O)(Cc2cnc3ccccc3c2)c2ccc(N(C)C)cc2)cc1 was tested, and the T/C [9] was 95 % of control, the T/C [10] was 103 % of control and the T/C (dose: 400.0 mg/kg/injection, schedule: Q04DX003 (ip), vehicle: saline with Tween-80) was 99 % of control.
For COc1ccc(C2OC(N)=C(O)C2=O)cc1OC (configuration not stated), the T/C (dose: 60.0 mg/kg/injection, schedule: Q01DX005 (ip), vehicle: Klucel (hydroxypropylcellulose) (HPC)) was 100 % of control, the T/C (dose: 120.0 mg/kg/injection, schedule: Q01DX005 (ip), vehicle: Klucel (hydroxypropylcellulose) (HPC)) was 91 % of control and the T/C (dose: 240.0 mg/kg/injection, schedule: Q01DX005 (ip), vehicle: Klucel (hydroxypropylcellulose) (HPC)) was 95 % of control.
With COC(=O)/C=C/c1c2ccccc2cc2ccccc12 the T/C [11] was 96 % of control, the T/C [12] was 96 % of control and the T/C [13] was 90 % of control.
With CC(=O)O[C@]1(C(C)=O)CC[C@H]2[C@@H]3C[C@H](C)C4=CC(=O)NCC[C@]4(C)[C@H]3CC[C@@]21C the T/C (dose: 50.0 mg/kg/injection, schedule: Q01DX005 (ip), vehicle: Klucel + Tween-80) was 98 % of control, the T/C (dose: 100.0 mg/kg/injection, schedule: Q01DX005 (ip), vehicle: Klucel + Tween-80) was 93 % of control and the T/C (dose: 200.0 mg/kg/injection, schedule: Q01DX005 (ip), vehicle: Klucel + Tween-80) was 94 % of control.
With CCC(=[Se])N(CC)CC the T/C (dose: 0.39 mg/kg/injection, schedule: Q01DX009 (ip), vehicle: Klucel (hydroxypropylcellulose) (HPC)) was 98 % of control, the T/C (dose: 0.78 mg/kg/injection, schedule: Q01DX009 (ip), vehicle: Klucel (hydroxypropylcellulose) (HPC)) was 102 % of control and the T/C (dose: 1.56 mg/kg/injection, schedule: Q01DX009 (ip), vehicle: Klucel (hydroxypropylcellulose) (HPC)) was 99 % of control. For the same molecule, the T/C (dose: 6.25 mg/kg/injection, schedule: Q01DX009 (ip), vehicle: Klucel (hydroxypropylcellulose) (HPC)) was 100 % of control.
In the case of c1ccc(-c2cc(CNc3nc4ccccc4s3)on2)cc1, the T/C [14] is reported as 99 % of control, the T/C [15] is reported as 99 % of control and the T/C [16] is reported as 99 % of control.
With C[N+](C)(C)CCC(=O)c1ccccc1 the T/C (dose: 12.5 mg/kg/injection, schedule: Q01DX009 (ip), vehicle: Klucel (hydroxypropylcellulose) (HPC)) was 99 % of control and the T/C [17] was 96 % of control.
For C=C1C2CCC3(CCC4C5(C)CCCC4(C=[N+](CCO)C5)C3C2)C1O (configuration not stated), the T/C [17] was 94 % of control.
For CC1=COC2CCCCC2O1 (configuration not stated) (tested in a mixture with another compound), the T/C (dose: 25.0 mg/kg/injection, schedule: Q01DX009 (ip), vehicle: acetone) was 111 % of control and the T/C (dose: 50.0 mg/kg/injection, schedule: Q01DX009 (ip), vehicle: acetone) was 105 % of control.
For O=C(O)CCC(=O)C(Cc1ccccc1)NC(=O)c1ccccc1 (configuration not stated), the T/C [4] was 94 % of control, the T/C [11] was 91 % of control and the T/C [5] was 89 % of control. The T/C [12] was 100 % of control, the T/C [6] was 100 % of control and the T/C [13] was 98 % of control.
For S=c1ncnc2c1ccc1[nH][nH]cc12, the T/C [18] was 88 % of control, the T/C (dose: 200.0 mg/kg/injection, schedule: Q04DX002 (ip), vehicle: saline with Tween-80) was 92 % of control and the T/C (dose: 400.0 mg/kg/injection, schedule: Q04DX002 (ip), vehicle: saline with Tween-80) was 107 % of control.
In the case of CSC(/C=C1\C=CN(Cc2ccccc2)c2ccccc21)=N\S(=O)(=O)c1ccc(C)cc1, the T/C (dose: 25.0 mg/kg/injection, schedule: Q04DX002 (ip), vehicle: saline with Tween-80) is reported as 102 % of control, the T/C (dose: 50.0 mg/kg/injection, schedule: Q04DX002 (ip), vehicle: saline with Tween-80) is reported as 97 % of control and the T/C [18] is reported as 97 % of control.
CCCCCCCC#CC1(CCCC)Sc2ccccc2N1C (configuration not stated) was tested, and the T/C [11] was 105 % of control, the T/C [12] was 110 % of control and the T/C [13] was 113 % of control.
In the case of COc1cc2cc3c(c(O)c2c(OC)c1OC)C(=O)CC(C)(C)C3, the T/C (dose: 25.0 mg/kg/injection, schedule: Q01DX005 (ip), vehicle: saline with Tween-80) is reported as 101 % of control and the T/C [4] is reported as 91 % of control.
